According to ChEMBL document CHEMBL1201862, “PubChem BioAssay data set” (2004):
The source made the active and inactive calls.

Columns and labels:
[1] = target: T1, Rac GTPase-activating protein 1 (Homo sapiens, UniProt Q9H0H5); assay: blockers of MgcRacGAP-driven Rac1 GTP hydrolysis – biochemical, ADP Hunter fluorescence, primary and confirmatory, confirmation (AID 624330); assay type: functional
T1 sequence (Q9H0H5 whole entry): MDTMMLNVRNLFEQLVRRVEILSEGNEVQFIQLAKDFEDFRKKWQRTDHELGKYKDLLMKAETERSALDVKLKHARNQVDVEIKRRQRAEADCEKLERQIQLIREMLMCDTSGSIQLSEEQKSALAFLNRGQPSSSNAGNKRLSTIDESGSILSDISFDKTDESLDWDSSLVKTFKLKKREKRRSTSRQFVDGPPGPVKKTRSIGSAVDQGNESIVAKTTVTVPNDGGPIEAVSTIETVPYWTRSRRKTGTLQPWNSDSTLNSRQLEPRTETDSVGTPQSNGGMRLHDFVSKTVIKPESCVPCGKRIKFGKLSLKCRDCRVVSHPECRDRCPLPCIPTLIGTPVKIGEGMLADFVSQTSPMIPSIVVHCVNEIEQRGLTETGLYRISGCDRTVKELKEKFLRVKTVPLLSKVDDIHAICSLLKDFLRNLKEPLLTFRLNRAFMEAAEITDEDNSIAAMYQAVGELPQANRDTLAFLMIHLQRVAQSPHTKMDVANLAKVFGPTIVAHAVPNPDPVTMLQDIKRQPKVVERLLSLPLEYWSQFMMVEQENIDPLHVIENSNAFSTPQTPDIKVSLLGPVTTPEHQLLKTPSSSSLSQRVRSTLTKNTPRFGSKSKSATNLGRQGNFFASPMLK

[2] = Fluorescence-based cell-based high throughput dose response assay for inhibitors of the interaction of nucleotide-binding oligomerization domain containing 2 (NOD2) and the receptor-interacting serine-threonine kinase 2 (RIPK2).; assay type: functional; conditions: Homo sapiens
cells = assay type: functional, cell-based; conditions: HEK-CNG
Galanin receptor type 3 = Galanin receptor type 3 (Homo sapiens, UniProt O60755); assay: Fluorescence-based cell-based primary high throughput dose response assay to identify antagonists of the Galanin Receptor 3 (GalR3).; assay type: functional
Chain of Galanin receptor type 3 (O60755 whole entry): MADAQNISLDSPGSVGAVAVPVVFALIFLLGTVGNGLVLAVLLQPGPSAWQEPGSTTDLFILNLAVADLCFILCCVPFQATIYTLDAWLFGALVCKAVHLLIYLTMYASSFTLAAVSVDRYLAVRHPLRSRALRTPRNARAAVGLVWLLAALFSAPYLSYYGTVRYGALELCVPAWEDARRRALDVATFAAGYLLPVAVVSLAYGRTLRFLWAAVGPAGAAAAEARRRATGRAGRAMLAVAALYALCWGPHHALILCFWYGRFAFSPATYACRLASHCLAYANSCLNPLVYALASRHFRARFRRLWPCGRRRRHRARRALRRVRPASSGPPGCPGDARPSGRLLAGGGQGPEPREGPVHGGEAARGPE

[3] = mouse fibroblast viability loss – cell-based, cherry-pick samples, set 2, cytotoxicity control for T. cruzi growth inhibitor project, dose response (AID 651817); assay type: functional; conditions: NIH3T3
[4] = intracellular Trypanosoma cruzi inhibitors in host cells – cell-based, plate reader, cherry-pick samples, set 3, dose response (AID 651818); assay type: functional;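 note: compounds incubated with infected cells for about four days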
[5] = general mammalian cell viability loss – inhibitor set, cherry-pick, set 2, cytotoxicity control for miR-122 modulator project, dose response (AID 720697); assay type: functional, cell-based
[6] = microbe, parasite or virus in culture; assay type: functional; conditions: Mycobacterium tuberculosis
[7] = target: T2, Low molecular weight phosphotyrosine protein phosphatase (Homo sapiens, UniProt P24666); assay type: functional; conditions: read-out: IC50_Mean
T2 sequence (P24666 whole entry): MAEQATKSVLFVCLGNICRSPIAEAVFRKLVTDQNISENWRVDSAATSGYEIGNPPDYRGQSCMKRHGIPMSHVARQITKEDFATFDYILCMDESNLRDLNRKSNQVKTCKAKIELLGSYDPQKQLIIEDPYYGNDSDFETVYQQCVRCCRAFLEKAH

[8] = target: T2, Low molecular weight phosphotyrosine protein phosphatase; assay type: functional; conditions: read-out: IC50_Mean; remark: listed apart in the source
Protein Wnt-3a [9] = target: T3, Protein Wnt-3a (Mus musculus, UniProt P27467); assay: SAR analysis of small molecule antagonists of Gli-SUFU in a Wnt3a luminescent reporter assay.; assay type: functional
T3 sequence (P27467 whole entry): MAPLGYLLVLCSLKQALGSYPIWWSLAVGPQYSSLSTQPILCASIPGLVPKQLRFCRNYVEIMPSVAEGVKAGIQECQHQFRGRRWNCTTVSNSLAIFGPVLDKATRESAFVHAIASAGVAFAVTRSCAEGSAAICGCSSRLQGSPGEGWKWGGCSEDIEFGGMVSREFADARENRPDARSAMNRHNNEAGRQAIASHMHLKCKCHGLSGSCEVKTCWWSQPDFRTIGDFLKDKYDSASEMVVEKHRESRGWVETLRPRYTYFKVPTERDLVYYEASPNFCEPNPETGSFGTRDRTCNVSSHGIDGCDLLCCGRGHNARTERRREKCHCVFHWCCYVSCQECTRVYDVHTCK

Protein Wnt-3a [10] = target: T3, Protein Wnt-3a; assay: antagonism of Wnt3a pathway luciferase reporter – Wnt-LIGHT cells, luminescence, selectivity assay for Gli-SUFU antagonist project, dose response (AID 651570); assay type: functional; conditions: read-out: IC50_Mean;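 note: Wnt-LIGHT reporter cells stimulated with conditioned medium from Wnt3a-producing cells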
[11] = target: Fructose-bisphosphate aldolase (Mycobacterium tuberculosis, UniProt P9WQA3); assay: Fluorescence-based biochemical high throughput dose response assay for inhibitors of the fructose-bisphosphate aldolase (FBA) of M. tuberculosis.; assay type: functional
Chain of Fructose-bisphosphate aldolase (P9WQA3 whole entry): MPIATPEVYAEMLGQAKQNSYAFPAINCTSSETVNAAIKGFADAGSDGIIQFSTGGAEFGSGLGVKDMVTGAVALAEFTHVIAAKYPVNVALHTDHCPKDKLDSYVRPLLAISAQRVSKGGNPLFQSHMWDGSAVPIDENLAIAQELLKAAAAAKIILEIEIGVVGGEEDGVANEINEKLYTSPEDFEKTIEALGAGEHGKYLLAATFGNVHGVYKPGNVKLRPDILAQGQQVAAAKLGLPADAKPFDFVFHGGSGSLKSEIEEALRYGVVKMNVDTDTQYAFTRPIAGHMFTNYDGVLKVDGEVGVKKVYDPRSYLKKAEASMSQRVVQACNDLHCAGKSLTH

[12] = target: T4, High affinity choline transporter 1 (Homo sapiens, UniProt Q9GZV3); assay: human choline transporter blockers, potency – cell-based, 10-point CRC, membrane potential dye, dose response (AID 588401); assay type: functional;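 note: membrane potential dye fluorescence of choline-evoked depolarization via CHT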
T4 sequence (Q9GZV3 whole entry): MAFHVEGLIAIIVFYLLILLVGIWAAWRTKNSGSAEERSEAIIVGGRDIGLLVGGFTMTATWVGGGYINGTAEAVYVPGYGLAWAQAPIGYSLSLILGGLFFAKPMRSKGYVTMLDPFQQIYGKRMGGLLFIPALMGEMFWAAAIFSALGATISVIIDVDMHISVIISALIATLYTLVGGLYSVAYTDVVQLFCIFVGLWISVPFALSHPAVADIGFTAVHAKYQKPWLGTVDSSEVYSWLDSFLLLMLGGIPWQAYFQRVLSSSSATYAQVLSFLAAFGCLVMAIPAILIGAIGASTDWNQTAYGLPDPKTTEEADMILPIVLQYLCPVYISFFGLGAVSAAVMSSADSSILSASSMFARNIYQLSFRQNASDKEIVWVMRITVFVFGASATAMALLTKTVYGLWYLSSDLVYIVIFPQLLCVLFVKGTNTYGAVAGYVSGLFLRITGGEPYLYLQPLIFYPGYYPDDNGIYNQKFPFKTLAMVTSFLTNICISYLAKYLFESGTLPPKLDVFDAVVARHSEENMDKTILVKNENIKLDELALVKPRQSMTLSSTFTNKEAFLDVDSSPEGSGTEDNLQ

[13] = target: T4, High affinity choline transporter 1; assay: human choline transporter radiolabel uptake blockers – cell-based, 3H-choline uptake, CHT LV-AA trafficking mutant, CRC, dose response (AID 602208); assay type: functional
[14] = target: T4, High affinity choline transporter 1; assay: human choline transporter blockers, potency – cell-based, 5-point CRC, membrane potential dye, dose response (AID 504840); assay type: functional
[15] = target: T5, Methionyl-tRNA synthetase, putative (Trypanosoma brucei brucei, UniProt Q38C91); assay type: functional, Trypanosoma brucei brucei strain 927/4 GUTat10.1
T5 sequence (Q38C91 whole entry): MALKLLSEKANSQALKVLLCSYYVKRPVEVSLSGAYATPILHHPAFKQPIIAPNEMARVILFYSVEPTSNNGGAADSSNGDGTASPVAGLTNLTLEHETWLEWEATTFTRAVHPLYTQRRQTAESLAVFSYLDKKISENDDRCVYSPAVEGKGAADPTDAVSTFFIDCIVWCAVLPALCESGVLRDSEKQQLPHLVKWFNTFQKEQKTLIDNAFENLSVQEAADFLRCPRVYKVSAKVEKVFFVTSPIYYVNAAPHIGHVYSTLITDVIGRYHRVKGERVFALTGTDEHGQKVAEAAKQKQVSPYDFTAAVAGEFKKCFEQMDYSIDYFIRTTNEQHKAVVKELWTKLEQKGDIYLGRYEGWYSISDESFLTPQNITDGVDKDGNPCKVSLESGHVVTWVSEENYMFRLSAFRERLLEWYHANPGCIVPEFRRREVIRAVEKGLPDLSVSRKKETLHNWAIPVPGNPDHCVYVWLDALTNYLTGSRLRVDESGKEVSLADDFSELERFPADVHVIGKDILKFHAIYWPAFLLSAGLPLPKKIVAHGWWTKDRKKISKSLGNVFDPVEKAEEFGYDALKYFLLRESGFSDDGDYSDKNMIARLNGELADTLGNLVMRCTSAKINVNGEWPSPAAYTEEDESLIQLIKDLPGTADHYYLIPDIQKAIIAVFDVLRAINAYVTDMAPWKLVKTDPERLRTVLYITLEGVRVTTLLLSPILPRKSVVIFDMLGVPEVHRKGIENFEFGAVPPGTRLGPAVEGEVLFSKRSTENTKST

[16] = target: T5, Methionyl-tRNA synthetase, putative; assay type: functional, Trypanosoma brucei brucei strain 927/4 GUTat10.1; remark: listed apart in the source
[17] = Counterscreen for inhibitors of Trypanosoma brucei methionyl tRNA synthetase (MetRS): Luminescence-based cell-based high throughput dose response assay to identify compounds that are cytotoxic to Jurkat human T lymphocyte cells.; assay type: functional
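Throughout, for EC50: target is galanin receptor GalR3 read with a cAMP biosensor in HEK293 cells.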

O=C1/C(=C\c2ccccc2)CN(C(=O)CCN2CCCCC2)C/C1=C/c1ccccc1
IC50 [1]: 84.9 µM (active) | IC50 [2]: 2.89 µM (active)

CC(=O)OCC1OC(n2c(S)c(C#N)c(-c3ccccc3)c(C#N)c2=O)C(OC(C)=O)C(OC(C)=O)C1OC(C)=O (centres undefined)
EC50 (cells): > 29.9 µM (inactive) | IC50 (Galanin receptor type 3): 503 nM (active)

C[C@@H]1CN([C@H](C)CO)C(=O)Cc2cc(NS(=O)(=O)c3ccc(Cl)cc3)ccc2O[C@@H]1CN(C)S(=O)(=O)c1ccc(Cl)cc1
AC50 [3]: 39 µM (inactive) | AC50 [4]: 3.39 µM (active)

CN(C(=O)c1ccccc1Cl)C1CCCCC1
AC50 [5]: 346 nM (active)

CC(C)Oc1ccc(-c2nc(NCC3CCCO3)c3ccccc3n2)cc1 (centres undefined)
CC50 [6]: 29.2 µM (active) | IC50 [7]: 24.2 µM (inactive) | IC50 [8]: 18.1 µM (active)

COc1cccc(C(=O)Nc2cc(N3CCCCC3)ncn2)c1
IC50 (Protein Wnt-3a [9]): > 21.8 µM (inactive)

Cc1nnsc1C(=O)Nc1ccc(S(=O)(=O)N2CCC(C)CC2)cc1
IC50 (Protein Wnt-3a [10]): 27.1 µM (inactive)

CNC(=O)c1cc2cc(OC)ccc2oc1=O
IC50 [11]: 2.13 µM (active)

O=C(NC1CCCCC1)c1ccc(OC2CCN(Cc3ccccn3)CC2)cc1
IC50 [12]: 891 nM (active) | IC50 [13]: 8.43 µM (active) | IC50 [14]: 1.65 µM (active)

Cc1cc(Cn2nc(-c3ccccc3)cc2C(=O)NCc2cccc(Br)c2)on1
IC50 [15]: 5.75 µM (active) | IC50 [16]: 2.08 µM (active) | IC50 [17]: 83.3 µM (inactive)
